This note sets out measurements from article PMC9664868, “Dephospho-Coenzyme A Kinase Is an Exploitable Drug Target against Plasmodium falciparum: Identification of Selective Inhibitors by High-Throughput Screening of a Large Chemical Compound Library” (Antimicrobial Agents and Chemotherapy, 2022).

In data set [1] the target is T1, PfDPCK (Plasmodium falciparum, UniProt Q8IL34). As to the kind of experiment: Kinetic analysis of recombinant PfDPCK (ADP Hunter Plus). The format is biochemical. Here is the method:
(§1) PfDPCK and HsCOASY activity was measured by quantifying ADP produced in the reaction by a coupling assay using the ADP Hunter Plus assay kit (DiscoverX, USA) according to the manufacturer's instructions. Briefly, enzymatic reactions were carried out in a 20-μL mixture of assay buffer containing 15 mM HEPES, 20 mM NaCl, 1 mM EGTA, 0.02% Tween 20, 10 mM MgCl2, 0.1% bovine gamma globulin, 50 ng of recombinant PfDPCK or HsCOASY, 4 to 256 μM dephospho-CoA, and 5 to 300 μM ATP on a black microplate. All reactions were performed for 2 h, reagents A and B were added, and they were then reincubated for 60 min at 30°C. After reactions were terminated by addition of ADP Hunter Stop solution, the fluorescent signal was measured using SpectraMax Paradigm (Molecular Devices, CA, USA) at excitation and emission wavelengths of 530 and 590 nm, respectively. The kinetic parameters were calculated using the nonlinear regression function using the single saturating concentrations of the substrates by the GraphPad Prism software (GraphPad Software Inc., San Diego, CA). The experiments were repeated three times in triplicate using proteins purified from independent cultures. Kinetic values of enzymes are presented as the means ± standard errors (SEs).

Another data set deals with T2, HsCOASY (Homo sapiens, UniProt Q13057).
T2 construct: His tag (pCold1 vector); made in house; host or cells: Escherichia coli BL21Star (DE3)
T2 sequence (Q13057 1-564): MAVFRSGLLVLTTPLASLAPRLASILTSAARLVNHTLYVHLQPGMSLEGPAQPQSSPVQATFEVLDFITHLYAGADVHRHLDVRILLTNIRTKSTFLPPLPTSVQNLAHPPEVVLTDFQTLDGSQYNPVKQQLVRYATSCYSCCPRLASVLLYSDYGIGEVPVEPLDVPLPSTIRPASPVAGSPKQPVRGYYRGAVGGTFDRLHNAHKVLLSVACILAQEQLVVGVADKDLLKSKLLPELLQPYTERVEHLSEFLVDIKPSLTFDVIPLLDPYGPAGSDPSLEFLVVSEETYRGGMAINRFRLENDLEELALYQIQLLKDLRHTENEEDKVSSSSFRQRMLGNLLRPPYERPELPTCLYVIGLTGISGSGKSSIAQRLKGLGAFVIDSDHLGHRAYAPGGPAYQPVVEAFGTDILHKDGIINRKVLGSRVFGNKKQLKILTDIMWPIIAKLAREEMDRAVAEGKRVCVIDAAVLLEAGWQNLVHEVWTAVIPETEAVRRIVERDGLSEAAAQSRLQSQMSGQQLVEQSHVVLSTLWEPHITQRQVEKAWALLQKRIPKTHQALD
As to the kind of experiment: Kinetic analysis of recombinant HsCOASY (ADP Hunter Plus). The format is biochemical. As to conditions: substrate of HsCOASY. Here is the method: as §1

Data set [2] concerns P. falciparum drug-resistant Dd2 strain. As to the kind of experiment: Erythrocytic-stage parasite growth inhibition, diaphorase-coupled LDH assay, Dd2. The data set is classed as cell-based, Plasmodium falciparum. To be noted: Plasmodium falciparum, DD2; Table S1; means ± SEM; read-out: IC50 (μM) Pf cell Dd2. Here is the method:
(§2) Selected hit compounds were also tested against erythrocytic-stage parasites of P. falciparum drug-sensitive 3D7 and drug-resistant Dd2 strains ([39]). For the phenotypic assay, parasite cultures were synchronized with 5% (wt/vol) D-sorbitol as previously described ([40]). A synchronized culture containing ring-stage parasites of 0.3% parasitemia was initiated with a culture volume of 25 μL/well on a 384-well plate. A series of diluted compounds (at final concentrations of 50, 10, 2, 0.4, and 0.08 μM) were used to calculate IC50 values. Mefloquine at 50 μM and atovaquone at 20 μM were used as no-growth control (100% inhibition). After 72 h of incubation, parasite growth was measured by diaphorase-coupled lactate dehydrogenase (LDH) assay as previously described ([41]). Absorbance at 650 nm was measured using SpectraMax Paradigm multimode microplate reader (Molecular Devices, San Jose, CA, USA). The IC50 values were calculated as described above.

Data set [3] concerns the target T1, PfDPCK. As to the kind of experiment: Mechanism of PfDPCK inhibition by Lineweaver-Burk plot. The data set is classed as biochemical. Here is the method: In order to understand the mechanism of PfDPCK inhibition of the identified compounds, we independently selected compounds from 359 PfDPCK-specific inhibitor candidates (showing >40% inhibition at 10 μM against PfDPCK), based on the more stringent criteria of >80% inhibition at 10 μM against PfDPCK and <10% inhibition against HsCOASY, to yield 30 hits. The hits were prioritized using a multiparameter optimization (MPO) scoring model, developed by MMV (https://www.optibrium.com/downloads/scoring-profiles/mmv-antimalarial-scoring-profile/) based on calculated physicochemical properties, including molecular weight, logP, hydrogen bond donors and acceptors, rotatable bonds, and structural alerts ([20], [21]). We finally chose six representative compounds (A-15, A-33, and A-69, shown in Table S1, and other three compounds; A-126, A-127, and A-128) by manual inspection with “chemist eye” for chemical attractiveness (druglikeness). […] Furthermore, two compounds, A-33 and A-69, are considered to be pan-assay interference compounds (PAINS) (phenolic Mannich base) ([22]). We consequently focused on two commercially available compounds (A-15 and A-127) (Fig. 6A) and investigated their mechanism of inhibition. We differentiated the type of inhibition by Lineweaver-Burk plot with various concentrations of one substrate (dephospho-CoA or ATP), while the other substrate was given in saturating concentrations in kinetic studies (Fig. 5).
FIG 5 Lineweaver-Burk plots showing inhibition of two compounds, compound A-15 (A, B) and compound A-127 (C, D) on the PfDPCK activity. The enzymatic activities were determined with various concentrations of dephospho-CoA and 200 μM ATP (A, C) or various concentrations of ATP and 200 μM dephospho-CoA (B, D) in the presence of a range of concentrations of inhibitors. Data are shown in means ± SEMs of triplicate.
as §1

In data set [4] the target is T1, PfDPCK. Kind of data set: PfDPCK inhibition, enzyme-coupled fluorescence ADP detection assay (HTS and IC50 determination). The data set is classed as biochemical. To be noted: Table S1; means ± SEM; read-out: IC50 (μM) Pf DPCK. Here is the method:
High-throughput screening against recombinant PfDPCK was performed using the Drug Discovery Initiative (DDI) full library, available from The University of Tokyo, composed of approximately 210,000 compounds. The primary assay was performed on 1,536-well white plate format with a final volume of 2 μL/well, containing 10 μM test compounds using a Multidrop Combi reagent dispenser (Thermo Fisher Scientific, Waltham, MA). The reaction was conducted in the assay buffer described above with 100 μM ATP and 50 μM dephospho-CoA. The assay was carried out at room temperature for 4 h in a closed plastic container with wet tissues. The reaction was stopped, and produced ADP was quantified using an enzyme-coupled fluorescence ADP detection assay, using PHERAstar microplate reader (BMG Labtech, Offenburg, Germany) with excitation at 540 nm and emission at 590 nm, as previously described ([17]). The inhibition level was calculated as the percentage inhibition of DPCK activity with each compound compared to the activity with only dimethyl sulfoxide (DMSO) as control (no inhibition) and that with no enzyme as 100% inhibition. IC50 values of the hit compounds were determined under the same assay conditions for the screening: Z′ factor, signal-to-background ratio (S/B), signal-to-noise ratio (S/N), and coefficient of variation (CV) were calculated to estimate the quality of screening system as previously described ([18], [38]).
The primary hits were reassayed in quadruplicate (n = 4) as in the primary screening. We next tested the confirmed secondary hits to exclude false positives that inhibit coupled fluorescence assay, but not PfDPCK. After exclusion of false positives, all tertiary hits were tested against human HsCOASY in the counterassay to exclude compounds that inhibit both PfDPCK and HsCOASY. The compounds showing >10% inhibition against HsCOASY were excluded from further studies. The IC50 values of the hit compounds were determined under the same assay conditions described as above for the primary screening, with the serially diluted compounds at 20, 10, 2.5, 0.5, and 0.1 μM at final concentrations. The assay was conducted in quadruplicate for each dilution, and IC50 values were calculated using GraphPad Software (San Diego, California USA).

Data set [5] relates to P. falciparum drug-sensitive 3D7 strain. As to the kind of experiment: Erythrocytic-stage parasite growth inhibition, diaphorase-coupled LDH assay, 3D7. The format is cell-based, Plasmodium falciparum. To be noted: Plasmodium falciparum, 3D7. Here is the method: as §2
Substrate in data set [6]: CC(C)(COP(=O)(O)OP(=O)(O)OCC1OC(n2cnc3c(N)ncnc32)C(O)C1O)C(O)C(=O)NCCC(=O)NCCS
Kind of data set: Kinetic analysis of recombinant PfDPCK (ADP Hunter Plus). The format is biochemical, Plasmodium falciparum. As to conditions: other: substrate of PfDPCK; 30.0 °C. Here is the method: as §1

Substrate in data set [7]: CC(C)(COP(=O)(O)OP(=O)(O)OCC1OC(n2cnc3c(N)ncnc32)C(O)C1O)C(O)C(=O)NCCC(=O)NCCS
Kind of data set: Kinetic analysis of recombinant HsCOASY (ADP Hunter Plus). The format is biochemical, human. To be noted: other: substrate of HsCOASY; 30.0 °C. Here is the method: as §1

A value given as a limit tells only on which side of the number the result lay.

The Km is the concentration of substrate that gives half-maximal velocity. With `Nc1ncnc2c1ncn2[C@@H]1O[C@H](COP(=O)(O)OP(=O)(O)OP(=O)(O)O)[C@@H](O)[C@H]1O` [ATP], the Km was 88.1 ± 11 µM at PfDPCK [1] (substrate of PfDPCK) and 115 ± 13.1 µM on HsCOASY.
For orientation: IC50 means the concentration at which inhibition is half-maximal. As usually defined, the Ki is a dissociation constant, usually derived from enzyme kinetics or from competition with a known ligand. Higher therefore signals a looser hold on the target. As a reminder, the inhibition is the drop in the measured response relative to a control, in per cent. With `COc1cc(N2CCCC2)cc2ccc(-c3ccccn3)nc12` [Compound A-127], the IC50 in data set [2] is less than 10 µM; on PfDPCK [4] it was 5.01 ± 0.46 µM; in data set [5] (Table S1, means ± SEM, read-out: IC50 (μM) Pf cell 3D7), less than 2 µM. For the same molecule, the Ki at PfDPCK [3] (in respect of ATP, 200 μM dephospho-CoA) worked out at 8.99 µM; on PfDPCK [3] (in respect of dephospho-CoA, 200 μM ATP), 14.9 µM. Further, the type of inhibition entry on PfDPCK [3] (in respect of dephospho-CoA and ATP, Lineweaver-Burk plot) is given as “uncompetitive or noncompetitive inhibition”. The inhibition at 2 µM in data set [5] (at 2 μM, read-out: growth inhibition against 3D7) is 80%.
As for `CC(C)(CO)[C@@H](O)C(=O)NCCC(=O)O` [pantothenate], the specific activity at PfDPCK [1] (as a substrate of PfDPCK) is less than 0.01 µmol/min/mg.

B1: PfDPCK (Plasmodium falciparum 3D7) (protein)
chain: MFLKFFLDKCILCFLALGSIPIGYINRKNKFRKIENQKYALFSSIVMNSFLIYLNKFFGILGIFNFFLGNYLCLIGITGGIAVGKSTFCNFLKKKDVVVINADEITSKIYTKDSICYKKIVKHFGENILNNDKSINRTLLRKIVFNNEENVKYINKITHTYIILQIIKECLKYKFLYFKYNVAIEAPLLIETKLYLLTSPVILLKSSVRNQIKRILSRDKNCTYDTAMGIIKNQLPTDEKIKYADIIINNDGDILDLQMKCDVVYNKYLKNFFF
With B1, the Km in data set [6] amounted to 105.3 ± 10.2 µM.

B2: HsCOASY (Homo sapiens) (protein)
chain: MAVFRSGLLVLTTPLASLAPRLASILTSAARLVNHTLYVHLQPGMSLEGPAQPQSSPVQATFEVLDFITHLYAGADVHRHLDVRILLTNIRTKSTFLPPLPTSVQNLAHPPEVVLTDFQTLDGSQYNPVKQQLVRYATSCYSCCPRLASVLLYSDYGIGEVPVEPLDVPLPSTIRPASPVAGSPKQPVRGYYRGAVGGTFDRLHNAHKVLLSVACILAQEQLVVGVADKDLLKSKLLPELLQPYTERVEHLSEFLVDIKPSLTFDVIPLLDPYGPAGSDPSLEFLVVSEETYRGGMAINRFRLENDLEELALYQIQLLKDLRHTENEEDKVSSSSFRQRMLGNLLRPPYERPELPTCLYVIGLTGISGSGKSSIAQRLKGLGAFVIDSDHLGHRAYAPGGPAYQPVVEAFGTDILHKDGIINRKVLGSRVFGNKKQLKILTDIMWPIIAKLAREEMDRAVAEGKRVCVIDAAVLLEAGWQNLVHEVWTAVIPETEAVRRIVERDGLSEAAAQSRLQSQMSGQQLVEQSHVVLSTLWEPHITQRQVEKAWALLQKRIPKTHQALD
notes: His tag (pCold1 vector); made in house; host or cells: Escherichia coli BL21Star (DE3)
Turning to B2, the Km in data set [7] is 85.35 ± 13.4 µM.
